Results: patent US7776833B2, “Use of cyclic bioisosters of purine system derivatives for treating diseases produced by disorders of niterergic and dopaminergic systems” (priority 2003, dated 2010)

Legend:
Format in all cases: in vivo, Wistar rats
[1] = system: nitrites and nitrates (NOx-); experiment: Measurement of nitrates/nitrites (NOx-) in brain regions after the morphine abstinence experiment; settings: 3 x 20 mg/kg intramuscularly
Method in brief: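 Rat brain regions homogenized in 20 mM HEPES pH 7.5 at 4 °C; deproteinized supernatants treated with nitrate reductase, 25 μM NADPH, 25 μM FAD (37 °C, 30 min), then DAN in acid; naphthotriazole fluorescence (ex 365/em 405 nm) against sodium nitrate standard, expressed as nmol/mg protein (Bradford).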

[2] = system: nitric oxide synthase (NOS); experiment: Nitric oxide synthase activity in brain regions, radiometric [3H]L-citrulline method; settings: 3 x 20 mg/kg intramuscularly
Method in brief: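 Rat cortex, hippocampus, mesencephalon, striatum, brainstem, hypothalamus and cerebellum were homogenized in 20 mM HEPES pH 7.5, and the 11000 g supernatant was incubated 15-60 min at 37 °C with [3H]L-arginine, 0.2 mM CaCl2, FAD, FMN, NADPH and BH4. [3H]L-citrulline was counted after Dowex removal of arginine. Ca2+-dependent/independent activity was split using EDTA ± L-NAME, per mg Bradford protein.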

[3] = system: physical dependence from morphine (morphine abstinence); experiment: Morphine abstinence syndrome, signs scored in the open field test; settings: Morphine − (morphine + compound); compound 3 x 20 mg/kg intramuscularly; one value for the three compounds
[4] = Groups Nos. 3-14, compound without morphine, one value for all 12 compounds
[5] = Morphine + compound, one value for the three compounds

## O=c1[nH][nH]c(=O)c2c(Br)ncnc12.[K] [Compound 37, potassium salt of 4-bromine-pyrimido[4,5-d]-6H-pyridazine-5,8-dione]
[1]; [4]
  Nitrites, brainstem: 6.31 ± 0.58 nmol/mg of protein
  Nitrites, cerebellum: 6.66 ± 0.63 nmol/mg of protein
  Nitrites, cerebral cortex: 4.31 ± 0.37 nmol/mg of protein
  Nitrites, hippocampus: 6.47 ± 0.72 nmol/mg of protein
  Nitrites, hypothalamus: 6.77 ± 0.83 nmol/mg of protein
  Nitrites, midbrain: 6.65 ± 0.70 nmol/mg of protein
  Nitrites, striatum: 6.11 ± 0.29 nmol/mg of protein
[1]; [5]
  Nitrites, brainstem: 6.87 ± 0.81 nmol/mg of protein
  Nitrites, cerebellum: 5.93 ± 0.54 nmol/mg of protein
  Nitrites, cerebral cortex: 4.84 ± 0.31 nmol/mg of protein
  Nitrites, hippocampus: 5.31 ± 0.33 nmol/mg of protein
  Nitrites, hypothalamus: 6.77 ± 0.46 nmol/mg of protein
  Nitrites, midbrain: 5.95 ± 0.52 nmol/mg of protein
  Nitrites, striatum: 3.57 ± 0.42 nmol/mg of protein
[2]; [4]
  Activity of NOS, hippocampus: 3.09 ± 0.16 nmol/min/mg of protein
  Activity of NOS, hypothalamus: 5.45 ± 0.24 nmol/min/mg of protein
  Activity of NOS, midbrain: 2.60 ± 0.29 nmol/min/mg of protein
  Activity of NOS, striatum: 1.26 ± 0.08 nmol/min/mg of protein
[2]; [5]
  Activity of NOS, hippocampus: 2.65 ± 0.15 nmol/min/mg of protein
  Activity of NOS, hypothalamus: 5.56 ± 0.34 nmol/min/mg of protein
  Activity of NOS, midbrain: 1.89 ± 0.27 nmol/min/mg of protein
  Activity of NOS, striatum: 1.34 ± 0.09 nmol/min/mg of protein
[3]
  Authentic differences (ξ-square criterion) in appearance of signs of abstinence: <<Wet dog>> shakes: 1.0000
  Authentic differences (ξ-square criterion) in appearance of signs of abstinence: Aggression: 0.8456
  Authentic differences (ξ-square criterion) in appearance of signs of abstinence: Convulsions: 0.5578
  Authentic differences (ξ-square criterion) in appearance of signs of abstinence: Diarrhea: 0.0001
  Authentic differences (ξ-square criterion) in appearance of signs of abstinence: Dyspnea: 0.0685
  Authentic differences (ξ-square criterion) in appearance of signs of abstinence: Forelimb jogging: 0.9321
  Authentic differences (ξ-square criterion) in appearance of signs of abstinence: Grit with teeth: 0.7003
  Authentic differences (ξ-square criterion) in appearance of signs of abstinence: Mastication: 0.1888
  Authentic differences (ξ-square criterion) in appearance of signs of abstinence: Piloerection: 0.2345
  Authentic differences (ξ-square criterion) in appearance of signs of abstinence: Ptosis: 0.0232
  Authentic differences (ξ-square criterion) in appearance of signs of abstinence: Rhinorrhea: 0.2935
  Authentic differences (ξ-square criterion) in appearance of signs of abstinence: Squeak when touched: 0.2035
